Experiments:
Format in all cases: in vivo
[1] = test system: upland rice (Oryza sp., var. Tebonnet, RICE); assay: Post-emerge test, crop safety; settings: post-emerge, 14 days after application, rating scale 0-100
Method in brief: (§1)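 Compounds in acetone were track-sprayed at 15-1000 g ai/ha (187 l/ha) on sandy loam pots: pre-emerge one day after seeding, post-emerge at 2-3 leaf stage with 0.25% v/v non-ionic surfactant. Phytotoxicity was rated 14 days later on a 0 (no damage) to 100 (complete death) scale.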

[2] = test system: field corn (Zea mays L., var. Dekalb 535, CORN); assay: Post-emerge test, crop safety; settings: post-emerge, 14 days after application, rating scale 0-100
Method in brief: as §1

[3] = test system: johnsongrass (Sorghum halepense, SORHA); assay: Pre-emerge test, greenhouse herbicide activity screening; settings: rated 14 days after application, 0 = no damage, 100 = complete death
Method in brief: as §1

[4] = test system: sicklepod (Cassia obtusifolia, CASOB); assay: as above; settings: rated 14 days after application, 0 = no damage, 100 = complete death
Method in brief: as §1

[5] = test system: velvetleaf (Abutilon theophrasti, ABUTH); assay: as above; settings: rated 14 days after application, 0 = no damage, 100 = complete death
Method in brief: as §1

[6] = test system: green foxtail (Setaria viridis, SETVI); assay: as above; settings: rated 14 days after application, 0 = no damage, 100 = complete death
Method in brief: as §1

[7] = test system: ivyleaf morningglory (Ipomoea hederacea, IPOHE); assay: as above; settings: rated 14 days after application, 0 = no damage, 100 = complete death
Method in brief: as §1

[8] = test system: lambsquarters (Chenopodium album, CHEAL); assay: as above; settings: rated 14 days after application, 0 = no damage, 100 = complete death
Method in brief: as §1

[9] = test system: barnyardgrass (Echinochloa crus-galli, ECHCG); assay: as above; settings: rated 14 days after application, 0 = no damage, 100 = complete death
Method in brief: as §1

[10] = test system: common ragweed (Ambrosia artemisizfolia L., AMBEL); assay: as above; settings: rated 14 days after application, 0 = no damage, 100 = complete death
Method in brief: as §1

[11] = test system: large crabgrass (Digitaria sanguinalis, DIGSA); assay: as above; settings: rated 14 days after application, 0 = no damage, 100 = complete death
Method in brief: as §1

[12] = test system: johnsongrass (Sorghum halepense, SORHA); assay: Post-emerge test, greenhouse herbicide activity screening; settings: post-emerge, 14 days after application, rating scale 0-100
Method in brief: (§2)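 Compounds in acetone were track-sprayed at 187 l/ha, 15–1000 g ai/ha, onto sandy loam pots. Pre-emerge seeds were sown one day before spraying, with surface watering afterwards. Post-emerge plants were at the 2–3 leaf stage and sprayed with 0.25% v/v non-ionic surfactant. Injury was rated 0–100 at 14 days.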

[13] = test system: redroot pigweed (Amaranthus retroflexus, AMARE); assay: as above; settings: post-emerge, 14 days after application, rating scale 0-100
Method in brief: as §2

[14] = test system: sicklepod (Cassia obtusifolia, CASOB); assay: as above; settings: post-emerge, 14 days after application, rating scale 0-100
Method in brief: as §2

[15] = test system: velvetleaf (Abutilon theophrasti, ABUTH); assay: as above; settings: post-emerge, 14 days after application, rating scale 0-100
Method in brief: as §2

[16] = test system: green foxtail (Setaria viridis, SETVI); assay: as above; settings: post-emerge, 14 days after application, rating scale 0-100
Method in brief: as §2

[17] = test system: ivyleaf morningglory (Ipomoea hederacea, IPOHE); assay: as above; settings: post-emerge, 14 days after application, rating scale 0-100
Method in brief: as §2

[18] = test system: lambsquarters (Chenopodium album, CHEAL); assay: as above; settings: post-emerge, 14 days after application, rating scale 0-100
Method in brief: as §2

[19] = test system: barnyardgrass (Echinochloa crus-galli, ECHCG); assay: as above; settings: post-emerge, 14 days after application, rating scale 0-100
Method in brief: as §2

[20] = test system: common ragweed (Ambrosia artemisizfolia L., AMBEL); assay: as above; settings: post-emerge, 14 days after application, rating scale 0-100
Method in brief: as §2

[21] = test system: large crabgrass (Digitaria sanguinalis, DIGSA); assay: as above; settings: post-emerge, 14 days after application, rating scale 0-100
Method in brief: as §2

[22] = test system: upland rice (Oryza sp., var. Tebonnet, RICE); assay: Pre-emerge test, crop safety; settings: rated 14 days after application, 0 = no damage, 100 = complete death
Method in brief: (§3)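 Sandy loam pots; pre-emerge: sown 1 d pre-spray, surface-watered after, then bottom-watered. Post-emerge: sown 8–21 d before, 2–3 leaf stage, + 0.25% v/v NIS, bottom-watered. Acetone, 187 l/ha track spray, 15–1000 g ai/ha. 0–100 injury score, day 14.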

[23] = test system: field corn (Zea mays L., var. Dekalb 535, CORN); assay: Pre-emerge test, crop safety; settings: rated 14 days after application, 0 = no damage, 100 = complete death
Method in brief: as §3

[24] = test system: redroot pigweed (Amaranthus retroflexus, AMARE); assay: Pre-emerge test, greenhouse herbicide activity screening; settings: rated 14 days after application, 0 = no damage, 100 = complete death
Method in brief: as §3

With `COc1c(Cl)cc(F)c(-n2c(=O)cc(C(F)(F)F)n(C)c2=O)c1NC(=O)c1cc(F)cc(F)c1` [2-50] the “phytotoxicity rating RICE” value ([1]; 63 g ai/ha) was 60, the “phytotoxicity rating RICE” value ([1]; 250 g ai/ha) was 65 and the “phytotoxicity rating CORN” value ([2]; 63 g ai/ha) was 10. The “phytotoxicity rating CORN” value ([2]; 250 g ai/ha) was 70, the “Pre-emerge Herbicidal Activity, phytotoxicity rating (0-100), SORHA” value ([3]; 63 g ai/ha) was 30 and the “Pre-emerge Herbicidal Activity, phytotoxicity rating (0-100), SORHA” value ([3]; 250 g ai/ha) was 80. The “Pre-emerge Herbicidal Activity, phytotoxicity rating (0-100), CASOB” value ([4]; 63 g ai/ha) was 60, the “Pre-emerge Herbicidal Activity, phytotoxicity rating (0-100), CASOB” value ([4]; 250 g ai/ha) was 100 and the “Pre-emerge Herbicidal Activity, phytotoxicity rating (0-100), ABUTH” value ([5]; 63 g ai/ha) was 100. The “Pre-emerge Herbicidal Activity, phytotoxicity rating (0-100), ABUTH” value ([5]; 250 g ai/ha) was 100, the “Pre-emerge Herbicidal Activity, phytotoxicity rating (0-100), SETVI” value ([6]; 63 g ai/ha) was 90 and the “Pre-emerge Herbicidal Activity, phytotoxicity rating (0-100), SETVI” value ([6]; 250 g ai/ha) was 100. The “Pre-emerge Herbicidal Activity, phytotoxicity rating (0-100), IPOHE” value ([7]; 63 g ai/ha) was 70, the “Pre-emerge Herbicidal Activity, phytotoxicity rating (0-100), IPOHE” value ([7]; 250 g ai/ha) was 100 and the “Pre-emerge Herbicidal Activity, phytotoxicity rating (0-100), CHEAL” value ([8]; 63 g ai/ha) was 100. The “Pre-emerge Herbicidal Activity, phytotoxicity rating (0-100), CHEAL” value ([8]; 250 g ai/ha) was 100, the “Pre-emerge Herbicidal Activity, phytotoxicity rating (0-100), ECHCG” value ([9]; 63 g ai/ha) was 10 and the “Pre-emerge Herbicidal Activity, phytotoxicity rating (0-100), ECHCG” value ([9]; 250 g ai/ha) was 100. The “Pre-emerge Herbicidal Activity, phytotoxicity rating (0-100), AMBEL” value ([10]; 63 g ai/ha) was 60, the “Pre-emerge Herbicidal Activity, phytotoxicity rating (0-100), AMBEL” value ([10]; 250 g ai/ha) was 100 and the “Pre-emerge Herbicidal Activity, phytotoxicity rating (0-100), DIGSA” value ([11]; 63 g ai/ha) was 70. The “Pre-emerge Herbicidal Activity, phytotoxicity rating (0-100), DIGSA” value ([11]; 250 g ai/ha) was 100, the “phytotoxicity rating SORHA” value ([12]; 63 g ai/ha) was 0 and the “phytotoxicity rating SORHA” value ([12]; 250 g ai/ha) was 40. For the same molecule, the “phytotoxicity rating AMARE” value ([13]; 63 g ai/ha) was 90, the “phytotoxicity rating AMARE” value ([13]; 250 g ai/ha) was 100 and the “phytotoxicity rating CASOB” value ([14]; 63 g ai/ha) was 80. For the same molecule, the “phytotoxicity rating CASOB” value ([14]; 250 g ai/ha) was 90, the “phytotoxicity rating ABUTH” value ([15]; 63 g ai/ha) was 100 and the “phytotoxicity rating ABUTH” value ([15]; 250 g ai/ha) was 100. The “phytotoxicity rating SETVI” value ([16]; 63 g ai/ha) was 40, the “phytotoxicity rating SETVI” value ([16]; 250 g ai/ha) was 60 and the “phytotoxicity rating IPOHE” value ([17]; 63 g ai/ha) was 100. For the same molecule, the “phytotoxicity rating IPOHE” value ([17]; 250 g ai/ha) was 100, the “phytotoxicity rating CHEAL” value ([18]; 63 g ai/ha) was 70 and the “phytotoxicity rating CHEAL” value ([18]; 250 g ai/ha) was 90. For the same molecule, the “phytotoxicity rating ECHCG” value ([19]; 63 g ai/ha) was 0, the “phytotoxicity rating ECHCG” value ([19]; 250 g ai/ha) was 30 and the “phytotoxicity rating AMBEL” value ([20]; 63 g ai/ha) was 40. The “phytotoxicity rating AMBEL” value ([20]; 250 g ai/ha) was 65, the “phytotoxicity rating DIGSA” value ([21]; 63 g ai/ha) was 10 and the “phytotoxicity rating DIGSA” value ([21]; 250 g ai/ha) was 30. For the same molecule, the “Pre-emerge phytotoxicity rating (0-100), crop damage, RICE” value ([22]; 63 g ai/ha) was 25, the “Pre-emerge phytotoxicity rating (0-100), crop damage, RICE” value ([22]; 250 g ai/ha) was 90 and the “Pre-emerge phytotoxicity rating (0-100), crop damage, CORN” value ([23]; 63 g ai/ha) was 5. The “Pre-emerge phytotoxicity rating (0-100), crop damage, CORN” value ([23]; 250 g ai/ha) was 70, the “Pre-emerge Herbicidal Activity, phytotoxicity rating (0-100), AMARE” value ([24]; 63 g ai/ha) was 100 and the “Pre-emerge Herbicidal Activity, phytotoxicity rating (0-100), AMARE” value ([24]; 250 g ai/ha) was 100.

Reference: patent publication US6355799B1, “Substituted benzene compounds, process for their preparation, and herbicidal and defoliant compositions containing them” (ISK Americas Incorporated, priority 1997, dated 2002)
